Reference: patent publication US6387936B1 (Aventis Pharma S.A., priority 1998, dated 2002)
Values joined by “and” are separate entries in the source; they are usually repeats but may differ in a detail not shown here. Equal entries are not always repeated.

Tests used:
[1] = tested on: parkinsonian marmosets (MPTP); assay: Locomotory activity of MPTP-treated parkinsonian marmosets (image analyser, small/medium/large movements); assay type: in vivo, Callithrix jacchus; set-up: Locomotory activity, small movements / Locomotory activity, small movements, Average ± S.E.M. / Locomotory activity, medium movements / Locomotory activity, large movements / Time passed in moving, small movements: unit not given here; settings: for Time passed in moving, large movements, Average ± S.E.M. / Time passed in moving, medium movements, Average ± S.E.M. / Time passed in moving, small movements, Average ± S.E.M. / Time passed in moving, small movements / Time passed in moving, medium movements / Time passed in moving, large movements: 30 min after 1st daily L-DOPA
Description: On day 32, the animals are divided into 2 groups. […] The locomotory activity is determined by placing the animals in test cages (50 cm×83 cm×77 cm) which are equipped with 3 […] onto which the animals can jump as well as a Plexiglas door in front of which is placed a camera. […] The image is digitalized with a 800×600 definition with 256 levels of grey and the changes in pixels from one image to another are counted. This allows the locomotory activity to be classified into small, medium or large movements. […] The locomotory activity of the animals is measured during the exploration phase, that is to say immediately after they are placed in the test cage.

[2] = tested on: parkinsonian marmosets (MPTP); assay: Dyskinesic score in MPTP-treated marmosets under chronic L-DOPA; assay type: in vivo, Callithrix jacchus; set-up: Total dyskinesic score, individual values / Total dyskinesic score, Average ± S.E.M.: scale not given here; settings: for Total dyskinesic score, Average ± S.E.M. / Total dyskinesic score, individual values: L-DOPA alone (Group 1 controls, sucrose); for Total dyskinesic score, individual values: marmosets 1-3
Description: The marmosets have free access to water and have available each day 35 g of food rich in carbohydrates, proteins and vitamins mixed with water, milk and sugar and also fresh fruit.
All the animals receive 3 injections of 2 mg/kg of MPTP by the subcutaneous route, on days 1, 7 and 32. On day 32, the animals are divided into 2 groups.
The dyskinesic score is determined according to a number of parameters and each with a different degree of intensity: […]

[3] = 30 min after the 1st administration of L-DOPA (25 mg/kg p.o.), Group 1, all intervals of 1 h
[4] = 30 min after the 1st administration of L-DOPA (25 mg/kg p.o.), Group 1 marmosets 1-3, interval 11-20 min
[5] = 30 min after the 1st administration of L-DOPA (25 mg/kg p.o.), Group 1 marmosets 1-3, interval 31-40 min
[6] = 30 min after the 1st administration of L-DOPA (25 mg/kg p.o.), Group 1 marmosets 1-3, interval 41-50 min
[7] = 30 min after the 1st administration of L-DOPA (25 mg/kg p.o.), Group 1 marmosets 1-3, interval 51-60 min
[8] = L-DOPA alone (Group 1, sucrose), 10 days after L-DOPA, in s (unit assumed)
[9] = L-DOPA alone (Group 1, sucrose), 20 days after L-DOPA, in s (unit assumed)
[10] = day 57 after 1st MPTP, 30 min after 1st daily L-DOPA
[11] = day 57 after 1st MPTP, 2 h after 1st daily L-DOPA
[12] = day 60 after 1st MPTP, 30 min after 1st daily L-DOPA
[13] = day 60 after 1st MPTP, 2 h after 1st daily L-DOPA
[14] = day 67 after 1st MPTP, 30 min after 1st daily L-DOPA
[15] = day 67 after 1st MPTP, 2 h after 1st daily L-DOPA
[16] = day 104 after 1st MPTP, 30 min after 1st daily L-DOPA
[17] = day 104 after 1st MPTP, 2 h after 1st daily L-DOPA
[18] = riluzole 2 × 10 mg/kg + L-DOPA (Group 2), 10 days after L-DOPA
[19] = riluzole 2 × 10 mg/kg + L-DOPA (Group 2), 10 days after L-DOPA, marmosets 4-6, interval 21-30 min, 10 mg/kg, in s (unit assumed)
[20] = riluzole 2 × 10 mg/kg + L-DOPA (Group 2), 10 days after L-DOPA, marmosets 4-6, interval 31-40 min, 10 mg/kg, in s (unit assumed)
[21] = riluzole 2 × 10 mg/kg + L-DOPA (Group 2), 10 days after L-DOPA, marmosets 4-6, interval 51-60 min, 10 mg/kg, in s (unit assumed)
[22] = riluzole 2 × 10 mg/kg + L-DOPA (Group 2), 20 days after L-DOPA, in s (unit assumed)
[23] = riluzole 2 × 10 mg/kg + L-DOPA (Group 2), 20 days after L-DOPA, marmosets 4-6, interval 1-10 min, 10 mg/kg, in s (unit assumed)

N[C@@H](Cc1ccc(O)c(O)c1)C(=O)O [L-DOPA, 3-(3,4-dihydroxyphenyl)-L-alanine]
Locomotory activity, large movements, Average ± S.E.M. [1, 3]: 334 + 23
Locomotory activity, medium movements, Average ± S.E.M. [1, 3]: 226 ± 13
Locomotory activity, small movements, Average ± S.E.M. [1, 3]: 40 ± 16
Locomotory activity, medium movements ([1]; 30 min after the 1st administration of L-DOPA (25 mg/kg p.o.), Group 1 marmosets 1-3, interval 1-10 min): 250 and 235 and 270
Locomotory activity, large movements [1, 4]: 350 and 385 and 275
Locomotory activity, medium movements [1, 4]: 240 and 190 and 290
Locomotory activity, large movements ([1]; 30 min after the 1st administration of L-DOPA (25 mg/kg p.o.), Group 1 marmosets 1-3, interval 21-30 min): 490 and 370 and 375
Locomotory activity, large movements [1, 5]: 290 and 230 and 335
Locomotory activity, medium movements [1, 5]: 255 and 355 and 205
Locomotory activity, large movements [1, 6]: 425 and 295 and 420
Locomotory activity, medium movements [1, 6]: 165 and 260
Locomotory activity, large movements [1, 7]: 350 and 330 and 365
Locomotory activity, medium movements [1, 7]: 215 and 240 and 200
Locomotory activity, small movements [1, 7]: 35 and 30
Effect on locomotory activity (in words) ([1]; L-DOPA after repeated treatment of 10 days and of 20 days): does not have or has little beneficial effect on the locomotory activity
Time passed in moving, large movements, Average ± S.E.M. [1, 8]: 171 ± 48
Time passed in moving, medium movements, Average ± S.E.M. [1, 8]: 160 ± 23
Time passed in moving, small movements, Average ± S.E.M. [1, 8]: 269 ± 47
Time passed in moving, small movements ([1]; L-DOPA alone (Group 1, sucrose), 10 days after L-DOPA, marmosets 1-3, interval 51-60 min): 205 and 225 and 240
Time passed in moving, medium movements ([1]; L-DOPA alone (Group 1, sucrose), 10 days after L-DOPA, marmosets 1-3, interval 51-60 min, in s (unit assumed)): 165 and 305 and 235
Time passed in moving, large movements, Average ± S.E.M. [1, 9]: 283 ± 50
Time passed in moving, medium movements, Average ± S.E.M. [1, 9]: 235 ± 37
Time passed in moving, small movements, Average ± S.E.M. [1, 9]: 83 ± 19
Effect on locomotory activity (in words) ([1]; acute administration of L-DOPA 25 mg/kg, 15 days after the 3rd injection of MPTP): increases the locomotory activity by decreasing the small movements and increasing the large movements
Total dyskinesic score, Average ± S.E.M. [2, 10]: 6.7 ± 2.1
Total dyskinesic score, individual values [2, 10]: 4 and 11 and 5
Total dyskinesic score, Average ± S.E.M. [2, 11]: 6.0 ± 2.1
Total dyskinesic score, individual values [2, 11]: 3 and 10 and 5
Total dyskinesic score, Average ± S.E.M. [2, 12]: 9.0 ± 2.5
Total dyskinesic score, individual values [2, 12]: 4 and 11 and 12
Total dyskinesic score, Average ± S.E.M. [2, 13]: 8.3 ± 2.32
Total dyskinesic score, individual values [2, 13]: 4 and 9 and 12
Total dyskinesic score, Average ± S.E.M. [2, 14]: 10 ± 3.0
Total dyskinesic score, individual values [2, 14]: 4 and 14 and 12
Total dyskinesic score, Average ± S.E.M. [2, 15]: 10 ± 3.0
Total dyskinesic score, individual values [2, 15]: 4 and 13 (2×)
Total dyskinesic score, Average ± S.E.M. [2, 16]: 11 ± 3.8
Total dyskinesic score, individual values [2, 16]: 4 and 17 and 2
Total dyskinesic score, Average ± S.E.M. [2, 17]: 11 ± 3.0
Total dyskinesic score, individual values [2, 17]: 5 and 17 and 12
Dyskinesias (in words) ([2]; repeated L-DOPA 25 mg/kg oral, 3 times per day, days 57, 60, 67 and 104, maximum effect on day 104): produce dyskinesias

Nc1nc2ccc(OC(F)(F)F)cc2s1 [riluzole, 2-amino-6-trifluoromethoxybenzo-thiazole]
Effect on locomotory activity (in words) ([1]; riluzole 10 mg/kg oral, twice per day for 72 days, after 10 and 20 days of treatment with L-DOPA): capable of improving the locomotory activity
Time passed in moving, large movements, Average ± S.E.M. [1, 18]: 410 ± 25^+++
Time passed in moving, small movements, Average ± S.E.M. [1, 18]: 57 ± 16^+++
Time passed in moving, medium movements, Average ± S.E.M. ([1]; riluzole 2 × 10 mg/kg + L-DOPA (Group 2), 10 days after L-DOPA, in s (unit assumed)): 134 ± 13
Time passed in moving, small movements ([1]; riluzole 2 × 10 mg/kg + L-DOPA (Group 2), 10 days after L-DOPA, marmosets 4-6, interval 1-10 min): 5
Time passed in moving, large movements ([1]; riluzole 2 × 10 mg/kg + L-DOPA (Group 2), 10 days after L-DOPA, marmosets 4-6, interval 1-10 min, 10 mg/kg, in s (unit assumed)): 560 and 495 and 520
Time passed in moving, large movements ([1]; riluzole 2 × 10 mg/kg + L-DOPA (Group 2), 10 days after L-DOPA, marmosets 4-6, interval 11-20 min, 10 mg/kg, in s (unit assumed)): 565 and 455 and 370
Time passed in moving, large movements [1, 19]: 540 and 355 and 435
Time passed in moving, medium movements [1, 19]: 60 and 120 and 115
Time passed in moving, large movements [1, 20]: 460 and 240 and 385
Time passed in moving, medium movements [1, 20]: 140 and 215 and 190
Time passed in moving, medium movements ([1]; riluzole 2 × 10 mg/kg + L-DOPA (Group 2), 10 days after L-DOPA, marmosets 4-6, interval 41-50 min, 10 mg/kg, in s (unit assumed)): 155 and 205 and 175
Time passed in moving, large movements [1, 21]: 430 and 265 and 310
Time passed in moving, medium movements [1, 21]: 135 and 125 and 190
Time passed in moving, medium movements, Average ± S.E.M. ([1]; riluzole 2 × 10 mg/kg + L-DOPA (Group 2), 20 days after L-DOPA): 148 ± 13^+
Time passed in moving, large movements, Average ± S.E.M. [1, 22]: 365 ± 37
Time passed in moving, small movements, Average ± S.E.M. [1, 22]: 67 ± 30
Time passed in moving, large movements [1, 23]: 445 and 335 and 490
Time passed in moving, medium movements [1, 23]: 155 and 140 and 80
Time passed in moving, medium movements ([1]; riluzole 2 × 10 mg/kg + L-DOPA (Group 2), 20 days after L-DOPA, marmosets 4-6, interval 51-60 min, 10 mg/kg, in s (unit assumed)): 90 and 180 and 105
